Assay results reported in patent EP3417074B1, “ANALYTICAL METHODS AND ARRAYS FOR USE IN THE SAME” (SenzaGen AB, priority 2016, dated 2017).
Values joined by “and” are separate entries in the source; they are usually repeats but may differ in a detail not shown here. Equal entries are not always repeated. Where two headings read alike, the source gives them in different places.

Legend:
MUTZ-3 cells [1] = system: MUTZ-3 cells
[2] = cited from earlier work; for binary class: Table 4; for binary class (HP*): Table 1, based on [41] where available, HP 1-4=S, 5-6=NS, otherwise according to CLP
MUTZ-3 cells [3] = details: for SVM DV: human
Excerpt: (§1) The SVM model had been developed for binary classifications (sensitizer versus non-sensitizer).

human skin = details: cited from earlier work
MUTZ-3 cells [4] = assay: Cytotoxicity / viability by flow cytometry (propidium iodide); details: Table 1, 24 hours exposure
MUTZ-3 cells [5] = assay: GARD random forest model for prediction of CLP categories (52 transcripts, Example A); details: for predicted CLP: Suppl. Table 1, separate replicates in the test set; for GARD predicted CLP: Table 6, independent test set, majority voting across replicates
MUTZ-3 cells [6] = system: MUTZ-3 cells; remark: listed apart in the source
MUTZ-3 cells [7] = assay: GARD binary classification (SVM on GARD prediction signature, 200 transcripts); details: Table 1; sensitizer if median calibrated SVM DV of replicates > 0
Excerpt: as §1

In the case of NC[C@H]1O[C@H](O[C@H]2[C@H](O)[C@@H](O[C@H]3O[C@H](CO)[C@@H](O)[C@H](N)[C@H]3O)[C@H](N)C[C@@H]2N)[C@H](O)[C@@H](O)[C@@H]1O [kanamycin A], the cytotox (MUTZ-3 cells [1]) is listed as “no” and the binary class [2] is listed as “non-sens”.
In the case of C=O [formaldehyde], the “SVM DV” value (MUTZ-3 cells [3]) is listed as 2,32, the HP (human skin) is listed as 2 and the Human potency (human skin) is listed as 2.
With O=C1C=CC(=O)C=C1 [p-benzoquinone] the GARD binary prediction (MUTZ-3 cells [3]) was “S”, the cytotox (MUTZ-3 cells [4]) was “yes” and the “predicted CLP” value (MUTZ-3 cells [5]) was 1A. The “GARD predicted CLP” value (MUTZ-3 cells [5]) was 1A.
In the case of CCOc1cc(C=O)ccc1O [ethyl vanillin], the “GARD predicted CLP” value (MUTZ-3 cells [6]) is reported as “no cat”, the “predicted CLP” value (MUTZ-3 cells [6]) is reported as “no cat” and the “predicted CLP” value (MUTZ-3 cells [6]; human, 24 h) is reported as 1B.
In the case of CC(C)(c1ccc(OCC2CO2)cc1)c1ccc(OCC2CO2)cc1 (stereo not shown) [bisphenol A-diglycidyl ether], the cytotox (MUTZ-3 cells [1]) is listed as “yes”, the HP (human skin) is listed as 3 and the “Human potency [41]” value (human skin) is listed as 3. For the same molecule, the GARD binary prediction (MUTZ-3 cells [7]) was “S”, the “predicted CLP” value (MUTZ-3 cells [5]) was 1A and the “GARD predicted CLP” value (MUTZ-3 cells [5]) was 1A.
In the case of C=CCc1ccc(O)c(OC)c1 [eugenol], the “SVM DV” value (MUTZ-3 cells [3]; 24 h) is given as 1,02, the HP (human skin) is given as 3 and the Human potency (human skin) is given as 3.
For Oc1ccccc1 [phenol], the “SVM DV” value (MUTZ-3 cells [3]) is listed as -1,08, the HP (human skin) is listed as 6 and the Human potency (human skin) is listed as 6.
For O=C(O)c1ccccc1 [benzoic acid], the cytotox (MUTZ-3 cells [1]) is given as “no”, the binary class [2] is given as “non-sens” and the “predicted CLP” value (MUTZ-3 cells [5]) is given as “no cat”. For the same molecule, the “GARD predicted CLP” value (MUTZ-3 cells [5]) was “no cat”.
In the case of CCCCOCC1CO1 (stereo not shown) [butyl glycidyl ether], the “binary classification according to the established GARD model” value (MUTZ-3 cells [3]) is reported as “misclassified”, the “CLP category predicted by the random forest model” value (MUTZ-3 cells [6]; human, 24 h) is reported as 1A and the “GARD predicted CLP” value (MUTZ-3 cells [6]; human, 24 h) is reported as 1A. For the same molecule, the cytotox (MUTZ-3 cells [1]) was “yes”, the HP (human skin) was 3 and the “Human potency [41]” value (human skin) was 3. The human potency category (human skin) was 3.
For CC(C)(O)CCCC1=CCC(C=O)CC1 (stereo not shown) [lyral], the human potency category (human skin; Basketter et al. [41]) is listed as 2, the HP (human skin; Table 4) is listed as 2 and the “Human potency [41]” value (human skin; Table 6, test set) is listed as 2. The “binary class (HP*)” value [2] was “S”, the binary class [2] was “sens” and the cytotox (MUTZ-3 cells [4]) was “yes”. For the same molecule, the GARD binary prediction (MUTZ-3 cells [7]) was “S”, the “predicted CLP” value (MUTZ-3 cells [5]) was 1A (2×) and 1B and the “GARD predicted CLP” value (MUTZ-3 cells [5]) was 1A. For the same molecule, the “CLP category predicted by the random forest model” value (MUTZ-3 cells [5]; test set, majority votes) was 1A.
In the case of O=CCCCC=O [glutaraldehyde], the HP (human skin; Table 4) is listed as 2, the “Human potency [41]” value (human skin; Table 6, test set) is listed as 2 and the “binary class (HP*)” value [2] is listed as “S”. The binary class [2] was “sens”, the cytotox (MUTZ-3 cells [4]) was “yes” and the GARD binary prediction (MUTZ-3 cells [7]) was “S”. The “predicted CLP” value (MUTZ-3 cells [5]) was 1A and the “GARD predicted CLP” value (MUTZ-3 cells [5]) was 1A.
For Nc1ccccc1 [aniline], the “binary classification according to the established GARD model” value (MUTZ-3 cells [3]) is listed as “misclassified”, the cytotox (MUTZ-3 cells [1]) is listed as “no” and the HP (human skin) is listed as 4.
For CCCCCCCCCCCCOS(=O)(=O)[O-].[Na+] [sodium dodecyl sulfate], the “SVM DV” value (MUTZ-3 cells [3]) is given as -1,52, the HP (human skin) is given as 6 and the Human potency (human skin) is given as 6.
In the case of CC=Cc1ccc(OC)cc1 [anethole], the “GARD predicted CLP” value (MUTZ-3 cells [6]; human, 24 h) is listed as 1B, the “predicted CLP” value (MUTZ-3 cells [6]; human, 24 h) is listed as 1B and the HP (human skin) is listed as 5. The “Human potency [41]” value (human skin) was 5.
For c1ccncc1 [pyridine], the cytotox (MUTZ-3 cells [1]) is given as “no” and the HP (human skin) is given as 5.
In the case of CC(C=O)Cc1ccc(C(C)(C)C)cc1 (stereo not shown) [lilial], the GARD binary prediction (MUTZ-3 cells [3]) is listed as “S”, the cytotox (MUTZ-3 cells [1]) is listed as “yes” and the HP (human skin) is listed as 4. The “binary class (HP*)” value [2] was “S” and the binary class [2] was “sens”.
